From US20210378993A1 (Nacuity Pharmaceuticals, Inc., priority 2020, published 2021)
“And” between values parts separate entries of the source, which are not always exact repeats. Equal values may be shown once.

What was measured:
[1] = test system: rabbit eyes; assay: Ophthalmic tolerability, daily Draize scores after topical ocular administration; assay type: in vivo; settings: rabbits
Description: To simulate topical ocular exposure to an ophthalmic insert containing AGENT, prototype ophthalmic formulations were prepared containing either 1% NPI-001, 1% diNACA, 1% NAC or vehicle and tested to evaluate ocular tolerability. Three rabbits per group were administered 1% NPI-001, 1% di-NAC, 1% NAC in a prototype vehicle, via bilateral topical administration four times a day for 6 days, and once on Day 7.

[2] = humans, oral dose of 600 mg; cited from earlier work
[3] = 1% in prototype vehicle, bilateral topical four times a day, Day 1, per animal and eye
[4] = 1% in prototype vehicle, bilateral topical four times a day, Day 2, per animal and eye
[5] = 1% in prototype vehicle, bilateral topical four times a day, Day 3, per animal and eye
[6] = 1% in prototype vehicle, bilateral topical four times a day, Day 4, per animal and eye
[7] = 1% in prototype vehicle, bilateral topical four times a day, Day 5, per animal and eye
[8] = 1% in prototype vehicle, bilateral topical four times a day, Day 6, per animal and eye
[9] = 1% in prototype vehicle, bilateral topical, once on Day 7, Day 7, per animal and eye
[10] = 1% in prototype vehicle, bilateral topical, (baseline), per animal and eye

## CC(=O)NC(CS)C(=O)O (centres unmarked) [NAC, N-acetylcysteine, reference compound]
[1]; [3]
  Daily Draize Scores for Chemosis, Day 1: 0
  Daily Draize Scores for Discharge, Day 1: 0
  Daily Draize Scores for Hyperemia, Day 1: 0
[1]; [4]
  Daily Draize Scores for Chemosis, Day 2: 0
  Daily Draize Scores for Discharge, Day 2: 0 (4×) and 0.5 (2×)
  Daily Draize Scores for Hyperemia, Day 2: 0 (4×) and 0.5 (2×)
[1]; [5]
  Daily Draize Scores for Chemosis, Day 3: 0
  Daily Draize Scores for Discharge, Day 3: 0
  Daily Draize Scores for Hyperemia, Day 3: 0 (3×) and 0.5 (3×)
[1]; [6]
  Daily Draize Scores for Chemosis, Day 4: 0
  Daily Draize Scores for Discharge, Day 4: 0 (4×) and 1 and 0.5
  Daily Draize Scores for Hyperemia, Day 4: 0
[1]; [7]
  Daily Draize Scores for Chemosis, Day 5: 0
  Daily Draize Scores for Discharge, Day 5: 0.5 and 0 (5×)
  Daily Draize Scores for Hyperemia, Day 5: 0
[1]; [8]
  Daily Draize Scores for Chemosis, Day 6: 0
  Daily Draize Scores for Discharge, Day 6: 0 (3×) and 1 (3×)
  Daily Draize Scores for Hyperemia, Day 6: 0
[1]; [9]
  Daily Draize Scores for Chemosis, Day 7: 0
  Daily Draize Scores for Discharge, Day 7: 0.5 (4×) and 1 and 0
  Daily Draize Scores for Hyperemia, Day 7: 1 (3×) and 0.5 (3×)
[1]; [10]
  Daily Draize Scores for Chemosis, Day B: 0
  Daily Draize Scores for Discharge, Day B: 0
  Daily Draize Scores for Hyperemia, Day B: 0
[1]; 1%, four times a day for 6 days, once on Day 7
  ocular hyperemia, observation over the study: mild hyperemia was observed at low frequencies
[2]
  time after administration at which no NAC is detectable: 10 to 12 h
